Test results from PMC10026764, “Overcoming the imatinib-resistant BCR-ABL mutants with new ureidobenzothiazole chemotypes endowed with potent and broad-spectrum anticancer activity” (Journal of Enzyme Inhibition and Medicinal Chemistry, 2023).
Where “and” joins values, the source holds several entries; their conditions need not be identical. Equal values may be shown once. Read-outs that look alike come from different tables or passages of the source.

How the values were obtained:
BCR-ABL^WT = BCR-ABL^WT (Homo sapiens, UniProt P00519); experiment: In vitro kinase screening (RBC), BCR-ABL^WT; format: biochemical; conditions: 10-dose IC50 mode, 3-fold serial dilution, 10 μM ATP
NCI-60 cell lines = experiment: NCI-60 single dose SRB assay (panel); format: cell-based; conditions: single dose 10 μM
Source text: To gain further insights about the anticancer profile of this new ureidobenzothiazole chemotypes, the structures of all final compounds were submitted to the National Cancer Institute (NCI, Developmental Therapeutics Program, Bethesda, MD, USA). Based on NCI selection criteria, compounds 2b (AK-HW-90), 2e, and 2f were chosen for broad screening against a library of 60 human cancer cell lines, representing nine types of blood and solid cancers. Employing the highly sensitive sulforhodamine B (SRB) assay, compounds 2b, 2e, and 2f were tested initially at a single dose of 10 μM, and their detailed activities on the percentages growth of the NCI-60 cell lines were illustrated in Figure 5, and compared with that observed for the lead benzothiazole AKE-5l.

NCI 60-cell line panel = experiment: cells; format: cell-based
HL-60(TB) = experiment: NCI-60 five-dose SRB assay; format: cell-based; conditions: Homo sapiens, leukaemia
K-562 = experiment: NCI-60 five-dose SRB assay; format: cell-based, human; conditions: K-562, leukaemia
RPMI-8226 = experiment: NCI-60 five-dose SRB assay; format: cell-based; conditions: Homo sapiens; RPMI-8226, leukaemia
SR = experiment: NCI-60 five-dose SRB assay; format: cell-based, human; conditions: leukaemia
NCI-H322M = experiment: NCI-60 five-dose SRB assay; format: cell-based, human; conditions: for CC50 / GI50: Homo sapiens; for CC50 / TGI: NSCL cancer; for CC50: read-out: LC50 (the source's name); for GI50: non-small cell lung cancer
NCI-H460 = experiment: cells; format: cell-based; conditions: for CC50 / TGI: NCI-H460, NSCL cancer; for CC50: read-out: LC50 (the source's name)
COLO 205 = experiment: NCI-60 five-dose SRB assay; format: cell-based; conditions: Homo sapiens; COLO 205, colon cancer
HCT-15 = experiment: NCI-60 five-dose SRB assay; format: cell-based, human; conditions: HCT-15, colon cancer; for GI50 / CC50: Homo sapiens; for CC50: read-out: LC50 (the source's name)
HT29 = experiment: NCI-60 five-dose SRB assay; format: cell-based, human; conditions: HT29, colon cancer; for GI50 / CC50: Homo sapiens, HT-29; for CC50: read-out: LC50 (the source's name)
SF-268 = experiment: NCI-60 five-dose SRB assay; format: cell-based; conditions: Homo sapiens; SF-268, CNS cancer
SNB-19 = experiment: NCI-60 five-dose SRB assay; format: cell-based; conditions: Homo sapiens; SNB-19, CNS cancer
LOX IMVI = experiment: NCI-60 five-dose SRB assay; format: cell-based; conditions: Homo sapiens, melanoma
MALME-3M = experiment: NCI-60 five-dose SRB assay; format: cell-based; conditions: Homo sapiens, melanoma
M14 = experiment: NCI-60 five-dose SRB assay; format: cell-based, human; conditions: M14, melanoma; for GI50 / LC50 (concentration killing 50% of cells): Homo sapiens
MDA-MB-435 = experiment: NCI-60 five-dose SRB assay; format: cell-based; conditions: Homo sapiens; MDA-MB-435, melanoma
SK-MEL-5 = experiment: cells; format: cell-based; conditions: SK-MEL-5, melanoma; for GI50 / LC50 (50% lethal concentration): Homo sapiens
UACC-62 = experiment: NCI-60 five-dose SRB assay; format: cell-based; conditions: Homo sapiens; UACC-62, melanoma
IGROV1 = experiment: NCI-60 five-dose SRB assay; format: cell-based; conditions: Homo sapiens, IGROV-1; IGROV1, ovarian cancer
OVCAR-5 = experiment: NCI-60 five-dose SRB assay; format: cell-based, human; conditions: OVCAR-5, ovarian cancer; for GI50 / LC50 (50% net cell kill): Homo sapiens
NCI/ADR-RES = experiment: NCI-60 five-dose SRB assay; format: cell-based; conditions: Homo sapiens, ovarian cancer
SK-OV-3 = experiment: NCI-60 five-dose SRB assay; format: cell-based; conditions: Homo sapiens; SK-OV-3, ovarian cancer
786-0 = experiment: NCI-60 five-dose SRB assay; format: cell-based; conditions: Homo sapiens; 786-0, renal cancer
A498 = experiment: NCI-60 five-dose SRB assay; format: cell-based; conditions: Homo sapiens; A498, renal cancer
UO-31 = experiment: NCI-60 five-dose SRB assay; format: cell-based, human; conditions: UO-31, renal cancer; for GI50 / CC50: Homo sapiens; for CC50: read-out: LC50 (the source's name)
MCF7 = experiment: NCI-60 five-dose SRB assay; format: cell-based, human; conditions: MCF7, breast cancer; for GI50 / CC50: Homo sapiens; for CC50: read-out: LC50 (the source's name)
MDA-MB-231 = experiment: NCI-60 five-dose SRB assay; format: cell-based; conditions: Homo sapiens; MDA-MB-231, breast cancer
HS 578T = experiment: NCI-60 five-dose SRB assay; format: cell-based; conditions: Homo sapiens, breast cancer
BT-549 = experiment: NCI-60 five-dose SRB assay; format: cell-based; conditions: Homo sapiens; BT-549, breast cancer
MDA-MB-468 = experiment: NCI-60 five-dose SRB assay; format: cell-based; conditions: Homo sapiens; MDA-MB-468, breast cancer
leukaemia K-562 cells = experiment: MTT antiproliferative assay; conditions: for GI50: Homo sapiens, K562, 72 h, read-out: GI50 K-562; for SI: selectivity index (GI50 (L132)/GI50 (K562)): MTT, 72 h
Source text: (§1) These cellular outcomes define the impact of BCR-ABL inhibition on the proliferation of K-562 cells.

L132 normal cell = experiment: MTT antiproliferative assay; conditions: Homo sapiens, L132, 72 h, read-out: GI50 L132
Source text: as §1

[1] = Homo sapiens, 60 cell, all tested melanoma cell lines, read-out: GI50
[2] = Homo sapiens, COLO205, HCC-2998, HCT-116 and HCT-15 colon cancer cells, read-out: GI50
[3] = Homo sapiens, NCI-H460, NCI-H460, non-small cell lung cancer

BCR-ABL^WT, sequence (P00519 27-1130): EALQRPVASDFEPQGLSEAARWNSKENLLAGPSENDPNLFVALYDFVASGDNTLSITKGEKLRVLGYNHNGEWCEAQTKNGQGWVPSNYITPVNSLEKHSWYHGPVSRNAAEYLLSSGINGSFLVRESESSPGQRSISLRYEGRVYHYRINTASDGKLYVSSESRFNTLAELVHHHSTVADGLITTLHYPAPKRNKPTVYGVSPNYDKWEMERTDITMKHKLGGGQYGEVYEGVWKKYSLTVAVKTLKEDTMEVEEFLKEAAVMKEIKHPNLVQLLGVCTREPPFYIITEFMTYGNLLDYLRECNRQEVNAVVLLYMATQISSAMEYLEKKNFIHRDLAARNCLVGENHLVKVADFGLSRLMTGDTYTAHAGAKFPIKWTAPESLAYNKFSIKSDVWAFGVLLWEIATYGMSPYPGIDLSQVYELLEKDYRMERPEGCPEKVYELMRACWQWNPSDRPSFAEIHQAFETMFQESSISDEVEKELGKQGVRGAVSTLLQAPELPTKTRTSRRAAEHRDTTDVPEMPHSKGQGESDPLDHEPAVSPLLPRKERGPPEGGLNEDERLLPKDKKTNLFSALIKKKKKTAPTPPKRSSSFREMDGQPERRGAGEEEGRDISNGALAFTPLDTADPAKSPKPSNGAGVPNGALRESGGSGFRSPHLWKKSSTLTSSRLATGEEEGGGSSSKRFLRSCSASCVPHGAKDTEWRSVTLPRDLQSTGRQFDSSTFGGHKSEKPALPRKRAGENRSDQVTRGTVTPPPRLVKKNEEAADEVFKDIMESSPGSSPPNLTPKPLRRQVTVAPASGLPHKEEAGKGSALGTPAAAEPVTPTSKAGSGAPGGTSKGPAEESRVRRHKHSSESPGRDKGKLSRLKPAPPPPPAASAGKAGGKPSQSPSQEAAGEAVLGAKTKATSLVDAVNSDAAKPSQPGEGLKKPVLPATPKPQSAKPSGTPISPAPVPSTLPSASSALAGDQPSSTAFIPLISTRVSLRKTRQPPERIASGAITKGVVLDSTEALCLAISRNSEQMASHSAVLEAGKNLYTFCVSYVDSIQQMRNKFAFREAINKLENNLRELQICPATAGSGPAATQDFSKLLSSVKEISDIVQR

CCN1CCN(c2ccc(NC(=O)Nc3nc4ccc(-c5ccccc5OC)cc4s3)cc2)CC1 [Compound 2b]
IC50 (BCR-ABL^WT): 0.7 nM and 0.701 nM | number of cancer cells with lethal/cytotoxic effects (minus % growth values) (NCI-60 cell lines): 55 cancer cells | GI50 (NCI 60-cell line panel; Homo sapiens, 60 cell, all ovarian cancer cell lines, read-out: GI50): < 2000 nM | GI50 (NCI 60-cell line panel; [1]): 1540 to 2510 nM | LC50 (NCI 60-cell line panel; Homo sapiens, 60 cell, several cancer cells): < 10000 nM | GI50 (NCI 60-cell line panel; [2]): 1070 to 2650 nM | GI50 (NCI 60-cell line panel; all examined cell lines): one-digit micromolar | TGI (NCI 60-cell line panel; several cancer cells): < 5000 nM | GI50 (HL-60(TB)): 1730 nM | GI50 (K-562; Homo sapiens, K562): 293 nM | TGI (K-562): 1340 nM | GI50 (RPMI-8226): 2060 nM | GI50 (SR; Homo sapiens): ~1700 nM | GI50 (SR): 1650 nM | CC50 (NCI-H322M): 5990 nM | GI50 (NCI-H322M): 1530 nM | TGI (NCI-H322M): 3030 nM | GI50 (NCI-H460; [3]): ~1760 nM | CC50 (NCI-H460; Homo sapiens): 6010 nM | TGI (NCI-H460): 3270 nM | GI50 (NCI-H460; NCI-H460, non-small cell lung cancer): 1770 nM | GI50 (COLO 205): 1970 nM | TGI (HCT-15): 2470 nM | GI50 (HCT-15): 1200 nM | CC50 (HCT-15): 5060 nM | TGI (HT29): 2700 nM | GI50 (HT29): 1310 nM | CC50 (HT29): 5570 nM | GI50 (SF-268): 1870 nM | GI50 (SNB-19): 2030 nM | GI50 (LOX IMVI): 1700 nM | GI50 (MALME-3M): 1710 nM | GI50 (M14): 1620 nM | LC50 (concentration killing 50% of cells) (M14): 5660 nM | TGI (M14): 3030 nM | GI50 (MDA-MB-435): 1710 nM | GI50 (SK-MEL-5): 1730 nM | LC50 (50% lethal concentration) (SK-MEL-5): 5630 nM | TGI (SK-MEL-5): 3120 nM | GI50 (UACC-62): 1870 nM | GI50 (IGROV1): 1870 nM | GI50 (OVCAR-5): 1800 nM | LC50 (50% net cell kill) (OVCAR-5): 6330 nM | TGI (OVCAR-5): 3370 nM | GI50 (NCI/ADR-RES): 1720 nM | GI50 (SK-OV-3): 1790 nM | GI50 (786-0): 1800 nM | GI50 (A498): 1800 nM | GI50 (UO-31): 1520 nM | CC50 (UO-31): 5630 nM | TGI (UO-31): 2920 nM | GI50 (MCF7): 1310 nM | CC50 (MCF7): 6250 nM | TGI (MCF7): 2860 nM | GI50 (MDA-MB-231): 1720 nM | GI50 (HS 578T): 1950 nM | GI50 (BT-549): 1880 nM | GI50 (MDA-MB-468): 2170 nM | GI50 (leukaemia K-562 cells): 3390 nM | SI: selectivity index (GI50 (L132)/GI50 (K562)) (leukaemia K-562 cells): 5.3 | GI50 (L132 normal cell): 17900 nM

COc1ccccc1-c1ccc2nc(NC(=O)Nc3cc(C(F)(F)F)cc(C(F)(F)F)c3)sc2c1 [Compound 2e]
IC50 (BCR-ABL^WT): 4090 nM | number of cancer cells with lethal/cytotoxic effects (minus % growth values) (NCI-60 cell lines): 21 cancer cells | GI50 (NCI 60-cell line panel; [1]): 1540 to 2510 nM | GI50 (NCI 60-cell line panel; [2]): 1070 to 2650 nM | GI50 (NCI 60-cell line panel; all examined cell lines): one-digit micromolar | GI50 (HL-60(TB)): 2010 nM | GI50 (K-562; Homo sapiens, K562): 1540 nM | CC50 (K-562; Homo sapiens, K562, read-out: LC50 (the source's name)): 43900 nM | TGI (K-562): 8950 nM | GI50 (RPMI-8226): 1630 nM | GI50 (SR; Homo sapiens): ~1700 nM | GI50 (SR): 1760 nM | CC50 (NCI-H322M): 37000 nM | GI50 (NCI-H322M): 2780 nM | TGI (NCI-H322M): 9060 nM | GI50 (NCI-H460; [3]): 2260 nM | CC50 (NCI-H460; Homo sapiens): 23500 nM | TGI (NCI-H460): 6120 nM | GI50 (COLO 205): 1650 nM | TGI (HCT-15): 10600 nM | GI50 (HCT-15): 2550 nM | CC50 (HCT-15): 34600 nM | TGI (HT29): 9210 nM | GI50 (HT29): 2150 nM | CC50 (HT29): 33000 nM | GI50 (SF-268): 2860 nM | GI50 (SNB-19): 2440 nM | GI50 (LOX IMVI): 1680 nM | GI50 (MALME-3M): 1810 nM | GI50 (M14): 1540 nM | LC50 (concentration killing 50% of cells) (M14): 6730 nM | TGI (M14): 3220 nM | GI50 (MDA-MB-435): 2270 nM | GI50 (SK-MEL-5): 1570 nM | LC50 (50% lethal concentration) (SK-MEL-5): 5640 nM | TGI (SK-MEL-5): 2980 nM | GI50 (UACC-62): 1560 nM | GI50 (IGROV1): 2830 nM | GI50 (OVCAR-5): 2540 nM | LC50 (50% net cell kill) (OVCAR-5): 32700 nM | TGI (OVCAR-5): 9660 nM | GI50 (NCI/ADR-RES): 2370 nM | GI50 (SK-OV-3): 2920 nM | GI50 (786-0): 1440 nM | GI50 (A498): 1640 nM | GI50 (UO-31): 1790 nM | CC50 (UO-31): 9290 nM | TGI (UO-31): 4070 nM | GI50 (MCF7): 2280 nM | CC50 (MCF7): 46200 nM | TGI (MCF7): 10900 nM | GI50 (MDA-MB-231): 1950 nM | GI50 (HS 578T): 2350 nM | GI50 (BT-549): 1620 nM | GI50 (MDA-MB-468): 1520 nM | GI50 (leukaemia K-562 cells): 13900 nM | SI: selectivity index (GI50 (L132)/GI50 (K562)) (leukaemia K-562 cells): 2.5 | GI50 (L132 normal cell): 35000 nM

Cc1ccc(NC(=O)c2ccc(CN3CCN(C)CC3)cc2)cc1Nc1nccc(-c2cccnc2)n1 [Imatinib]
GI50 (leukaemia K-562 cells): 800 nM | GI50 (L132 normal cell): > 10000 nM
